This is an account of results in patent publication US20230399341A1, “7-PHENYL SUBSTITUTED 2-AMINOQUINAZOLINE INHIBITORS OF HPK1” (MERCK SHARP & DOHME LLC, priority 2020, published 2023).

What is called IC50 is the concentration at which inhibition is half-maximal. Low readings indicate higher potency, high ones lower potency.

Molecules are shown by their SMILES.

The assay concerns the target T1, Human HPK1, catalytic domain (Homo sapiens, UniProt Q92918).
T1 sequence (Q92918 1-346): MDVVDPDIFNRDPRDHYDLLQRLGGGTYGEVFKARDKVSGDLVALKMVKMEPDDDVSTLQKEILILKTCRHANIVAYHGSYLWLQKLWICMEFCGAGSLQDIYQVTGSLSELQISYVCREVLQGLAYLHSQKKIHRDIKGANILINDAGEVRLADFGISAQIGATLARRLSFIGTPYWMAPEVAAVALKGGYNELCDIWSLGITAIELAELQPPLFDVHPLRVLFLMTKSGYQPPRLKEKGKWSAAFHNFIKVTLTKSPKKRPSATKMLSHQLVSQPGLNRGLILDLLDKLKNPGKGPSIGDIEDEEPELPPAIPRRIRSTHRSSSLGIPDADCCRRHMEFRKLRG
The assay is described as follows: HPK1-SLP76 TR-FRET Assay. Type of assay: biochemical. The note with it: 75 pM HPK1, ATP 10 uM, SLP76 10 nM, 30 min pre-incubation, 60 min reaction.

Compound `Cc1c(-c2cc3nc(Nc4ccc5c(c4)CN(C)C(C)C5)ncc3c(N)c2F)cnc2c1NCCO2` (single isomer, unassigned) [Compound 2-85, (R or S)—N2-(2,3-dimethyl-1,2,3,4-tetrahydroisoquinolin-7-yl)-6-fluoro-7-(8-methyl-2,3-dihydro-1H-pyrido[2,3-b][1,4]oxazin-7-yl)quinazoline-2,5-diamine] yielded an IC50 of 0.0328 nM.

The compound `CNC(=O)C1(c2ccc(Nc3ncc4cc(F)c(-c5cnc6c(c5C)NCCO6)cc4n3)cc2)CCCC1` [Compound 1-120, 1-(4-{[6-fluoro-7-(8-methyl-2,3-dihydro-1H-pyrido[2,3-b][1,4]oxazin-7-yl)quinazolin-2-yl]amino}phenyl)-N-methylcyclopentane-1-carboxamide] came in with a concentration for half-maximal inhibition (IC50) of 0.595 nM. Compared with the last compound, the IC50 is about 18-fold higher.

The compound `COc1cc2c(cc1Nc1ncc3ccc(NC4CC(OC)C4)cc3n1)CN(C)CC2` (stereo not shown) [Compound 3-51, N~7~-(3-methoxycyclobutyl)-N~2~-(6-methoxy-2-methyl-1,2,3,4-tetrahydroisoquinolin-7-yl)quinazoline-2,7-diamine] gave a concentration for half-maximal inhibition (IC50) of 234 nM. This IC50 is about 390-fold higher than that of the compound before.

Take `COc1cc2c(cc1Nc1ncc3c(N)c(F)c(-c4cnc5c(c4C)NCCO5)cc3n1)C(C)N(C)CC2` (single isomer, unassigned) [Compound 2-36, (S or R)-6-fluoro-N^2-(6-methoxy-1,2-dimethyl-1,2,3,4-tetrahydroisoquinolin-7-yl)-7-(8-methyl-2,3-dihydro-1H-pyrido[2,3-b][1,4]oxazin-7-yl)quinazoline-2,5-diamine]: it took 0.101 nM to reach half-maximal inhibition (IC50).

In the case of `COc1nc(C2(C#N)CC2)ccc1Nc1ncc2c(N)c(F)c(-c3cnc4c(c3C)NCCO4)cc2n1` [Compound 2-68, 1-(5-{[5-amino-6-fluoro-7-(8-methyl-2,3-dihydro-1H-pyrido[2,3-b][1,4]oxazin-7-yl)quinazolin-2-yl]amino}-6-methoxypyridin-2-yl)cyclopropane-1-carbonitrile], the IC50 worked out at 14.3 nM.

`COc1cc2c(cc1Nc1ncc3ccc(-c4cc(S(=O)(=O)N(C)C)ccc4C)cc3n1)CNCC2` [Compound 1-79, 3-{2-[(6-methoxy-1,2,3,4-tetrahydroisoquinolin-7-yl)amino]quinazolin-7-yl}-N,N,4-trimethylbenzene-1-sulfonamide] showed an IC50 of 148 nM.

In turn, `CNC(=O)C1(c2ccc(Nc3ncc4c(N)c(F)c(-c5cnc6c(c5C)NCCO6)cc4n3)cc2)CCCC1` [Compound 2-83, 1-(4-((5-amino-6-fluoro-7-(8-methyl-2,3-dihydro-1H-pyrido[2,3-b][1,4]oxazin-7-yl)quinazolin-2-yl)amino)phenyl)-N-methylcyclopentane-1-carboxamide] returned an IC50 of 0.0417 nM. Compared with the last compound, the IC50 is about 3500-fold lower.

`C[C@H]1COC(=O)N1c1cc(N)c2cnc(Nc3ccc(S(C)(=O)=O)cc3)nc2c1` [Compound 3-76, (S)-3-(5-amino-2-((4-(methyl-sulfonyl)phenyl)amino)quinaz-olin-7-yl)-4-methyloxazolidin-2-one] came in with an IC50 of 0.101 nM.

As to `COc1cc2c(cc1Nc1ncc3ccc(-c4ccc5c(c4)CCCO5)cc3n1)CNCC2` [Compound 1-75, 7-(3,4-dihydro-2H-1-benzopyran-6-yl)-N-(6-methoxy-1,2,3,4-tetrahydroisoquinolin-7-yl)quinazolin-2-amine], half-maximal inhibition (IC50) required 91.6 nM.

For `CCNS(=O)(=O)c1cccc(-c2ccc3cnc(Nc4cc5c(cc4OC)CCNC5)nc3c2)c1` [Compound 1-84, N-ethyl-3-{2-[(6-methoxy-1,2,3,4-tetrahydroisoquinolin-7-yl)amino]quinazolin-7-yl}benzene-1-sulfonamide], 53.7 nM corresponded to half-maximal inhibition (IC50).

With `Cc1c(-c2cc3nc(Nc4cncnc4)ncc3c(N)c2F)cnc2c1NCCO2` [Compound 2-19, 6-fluoro-7-(8-methyl-2,3-dihydro-1H-pyrido[2,3-b][1,4]oxazin-7-yl)-N~2~- (pyrimidin-5-yl)quinazoline-2,5-diamine], the half-maximal inhibitory concentration (IC50) stood at 1.34 nM.

For `Cc1c(-c2c(F)c(N)c3cnc(Nc4ccc(N5CCOC5=O)cc4)nc3c2Cl)cnc2c1NCCO2` (single isomer, unassigned) [Compound 2-156], the IC50 is 0.235 nM. Against the preceding compound, the IC50 is about 5.7-fold lower.

As for `CNC(=O)Cc1ccc(Nc2ncc3cc(F)c(-c4cnc5c(c4C)NCCO5)cc3n2)cc1` [Compound 1-130, 2-(4-{[6-fluoro-7-(8-methyl-2,3-dihydro-1H-pyrido[2,3-b][1,4]oxazin-7-yl)quinazolin-2-yl]amino}phenyl)-N-methylacetamide], the half-maximal inhibitory concentration (IC50) stood at 0.0726 nM. Against the preceding compound, the IC50 is about 3.2-fold lower.

As for `Cc1c(-c2c(F)c(N)c3cnc(Nc4ccc(S(C)(=O)=O)cc4)nc3c2Cl)cnc2c1NCCO2` [Compound 2-103, (+ or −)-8-chloro-6-fluoro-7-(8-methyl-2,3-dihydro-1H-pyrido[2,3-b][1,4]oxazin-7-yl)-N~2~- [4-(methylsulfonyl)phenyl] quinazoline-2,5-diamine], the IC50 turned out to be 0.0946 nM.

Regarding `COc1cc2c(cc1Nc1ncc3ccc(-c4cccc(CN5CCCCC5)c4)cc3n1)CNCC2` [Compound 1-69, N-(6-methoxy-1,2,3,4-tetrahydroisoquinolin-7-yl)-7-{3-[(piperidin-1-yl)methyl]phenyl}quinazolin-2-amine], the half-inhibitory concentration (IC50) came out at 215 nM.

In turn, `Cc1c(-c2cc3nc(Nc4cccc(S(C)(=O)=O)c4)ncc3c(N)c2F)cnc2c1NCCO2` [Compound 2-14, 6-fluoro-7-(8-methyl-2,3-dihydro-1H-pyrido[2,3-b][1,4]oxazin-7-yl)-N~2~- [3-(methylsulfonyl)phenyl] quinazoline-2,5-diamine] displayed a half-inhibitory concentration (IC50) of 0.082 nM. This IC50 lies about 2600-fold lower than the previous one.

In the case of `COc1cc(CS(C)(=O)=O)ccc1Nc1ncc2c(N)c(F)c(-c3cnc4c(c3C)NCCO4)cc2n1` [Compound 2-50, 6-fluoro-N2-(2-methoxy-4-((methylsulfonyl)methyl)phenyl)-7-(8-methyl-2,3-dihydro-1H-pyrido[2,3-b][1,4]oxazin-7-yl)quinazoline-2,5-diamine], the IC50 amounted to 0.0594 nM.

`COc1cc2c(cc1Nc1ncc3c(N)c(F)c(-c4cnc5ncsc5c4)cc3n1)CN(C)CC2` [Compound 2-47, 6-fluoro-N~2~-(6-methoxy-2-methyl-1,2,3,4-tetrahydroisoquinolin-7-yl)-7-([1,3]thiazolo[4,5-b]pyridin-6-yl)quinazoline-2,5-diamine]: the IC50 came out at 24.6 nM. Compared with the last compound, the IC50 is about 410-fold higher.

With `Cc1c(-c2cc3nc(Nc4ccc(C5CCN(C)C5=O)cc4)ncc3cc2F)cnc2c1NCCO2` (single isomer, unassigned) [Compound 1-127, (R of S)-3-(4-{[6-fluoro-7-(8-methyl-2,3-dihydro-1H-pyrido[2,3-b][1,4]oxazin-7-yl)quinazolin-2-yl]amino}phenyl)-1-methylpyrrolidin-2-one], the IC50 came out at 0.949 nM.

On to `Cc1c(N)cncc1-c1cc2nc(Nc3ccc4c(c3)CN(C)CC43CC3)ncc2c(N)c1F` [Compound 2-153, 7-(5-amino-4-methylpyridin-3-yl)-6-fluoro-N~2~-(2′-methyl-2′,3′-dihydro-1′H-spiro[cyclopropane-1,4′-isoquinolin]-7′-yl)quinazoline-2,5-diamine], for which it took 0.0471 nM to reach half-maximal inhibition (IC50).

In turn, `Cc1c(-c2cc3nc(Nc4ccc5c(c4)CN(C(C)C)CC5)ncc3c(N)c2F)cnc2c1NCCO2` [Compound 2-76, 6-fluoro-7-(8-methyl-2,3-dihydro-11H-pyrido[2,3-b][1,4]oxazin-7-yl)-N˜2˜-[2-(propan-2-yl)-1,2,3,4-tetrahydroisoquinolin-7-yl]quinazoline-2,5-diamine] had a concentration for half-maximal inhibition (IC50) of 0.0321 nM.

With `CCS(=O)(=O)Cc1ccc(Nc2ncc3c(N)c(F)c(-c4cnc5c(c4C)NCCO5)c(Cl)c3n2)cc1` [Compound 2-134], the IC50 was 57.7 nM. This IC50 is about 1800-fold higher than that of the compound before.
